Test results taken from patent US11661404B2, “Prodrug compounds activated by AKR1C3 and their use for treating hyperproliferative disorders” (priority 2018, dated 2023).
Read-outs that look alike come from different tables or passages of the source.

How the values were obtained:
[1] = tested on: wild-type PLC/PRF/5 hepatocellular carcinoma cells; experiment: Anti-proliferative IC50 assay, wild-type PLC/PRF/5; assay type: cell-based, human; conditions: for IC50: Homo sapiens, PLC-PRF-5
Procedure: (§1) Four hundred cells were seeded in a volume of 100 μL in each well of a 96-well plate. The cells were left in a humidified incubator (37° C., 5% CO2) for 2 hours in order to enable attachment to the surface of the wells prior to compound addition. All compounds were prepared as stocks in DMSO and stored at −80° C. Frozen stocks of compounds were thawed immediately prior to addition to cells. Working solutions of each compound were made in α-MEM+5% FBS (v/v) at 3 times the required final concentration for the top well. The final concentration of DMSO in the α-MEM solution was ensured to not exceed 1% of the total volume. 50 μL of the working solution was added to the top wells (in duplicates) and gently mixed. The solubility of some compounds precluded the working solution in α-MEM to be 3 times the desired top well concentration. […] A 3-fold serial dilution was carried out along the plate starting from the top well. The first column of wells on the plate served as blanks (containing α-MEM+FBS) and the second column served as control wells (containing cells with no compound added). Following compound addition, the plates were incubated for 4 hours in a humidified incubator (37° C., 5% CO2).
(§2) Following the 4 hour compound exposure, the 96-well plates were washed three times by aspirating media with an Immuno Washer (Nunc) and each well replaced with 150 μL of α-MEM+5% (v/v) FBS+1% (v/v) P/S. The plates were left in a humidified incubator (37° C., 5% CO2) for 5 days to enable cell growth. The cells in 96-well plates were fixed 5 days after compound exposure by adding 50 μL of a 40% (w/v) trichloroacetic acid (TCA) solution so as to obtain a final TCA concentration of 10% in each well. The plates were left in the refrigerator (4° C.) for 1 hour and subsequently rinsed 3 times in tap water. Any excess water was left to drain and the cells were stained with 50 μL of 0.4% (w/v) sulforhodamine B (SRB). The plates with the SRB stain were left in the dark for 30 minutes. Excess stain was removed from the wells by rinsing the plates 4 times in water containing 1% (v/v) acetic acid. The stain was solubilised by adding 100 μL of 10 mM unbuffered Tris (pH 10.5) to each well and the plates were left in a shaker in a dark environment at room temperature for at least 1 hour. The absorbance values of the wells were determined by an ELx 808 Absorbance Microplate Reader (Bio-Tek Instruments, Winooski, Vt., USA), with the wavelength of the measurement filter set at 490 nm and a reference filter set at 450 nm. The absorbance of the reference filter was subtracted from the measurement filter to obtain a final absorbance of λ490-450 nm. The absorbance data was analysed and IC50 values determined by the KC4 microplate data analysis software (KC4™ V3.4, Bio-Tek).
(§3) Anti-proliferative IC50 assays were repeated as described above including the addition of 3 μM SN34037, a selective and potent small molecule inhibitor of AKR1C3.
Materials and methods used are as described for Example 9.

[2] = tested on: HCT116 colon cancer cells engineered to over-express AKR1C3; experiment: Anti-proliferative IC50 assay (SRB), HCT116 over-expressing AKR1C3; assay type: cell-based, human; conditions: for IC50 Ratio WT:AKR1C3: HCT116-WT vs HCT116-AKR1C3
Source text: (§4) The cellular cytotoxicity of compounds of the invention resulting from AKR1C3-dependent metabolism of the compounds can readily be observed in anti-proliferative IC50 testing in isogenic cell lines that have been engineered to over-express human AKR1C3, relative to their wild-type counterparts that have been selected for their comparatively low levels of endogenous AKR1C3 expression (by Western blot analysis). The direct role of AKR1C3 in metabolism and cytotoxicity of the compounds is further supported for selected examples by repeat anti-proliferative experiments in the presence of a potent and selective small molecule inhibitor of AKR1C3, SN34037 (Flanagan et al., Bioorganic & Medicinal Chemistry (2014), 22(3), 967-977).
as §1, §2, §3

[3] = tested on: wild-type HCT116 colon cancer cells; experiment: Anti-proliferative IC50 assay (SRB), wild-type HCT116; assay type: cell-based, human
Source text: as §4, §1, §2, §3

[4] = tested on: H460 lung cancer xenografts; experiment: Tumour growth delay, H460 xenografts; assay type: in vivo, NIH-III mice; conditions: q4dx3 intraperitoneal; for tolerability of schedule: 237, 178 and 178 μmol/kg
Source text: Specific pathogen-free female homozygous nude NIH-III (NIH-Lyst^bg Foxn1^nu Btk^xid) mice were bred by the Vernon Jansen Unit (shared vivarium, University of Auckland). Animals were housed in Techniplast microisolator cages and provided with a standard twelve hour day-night light schedule. Animals received standard rodent diet (Harlan Teklad diet 2018i) and water ad libitum. All animal studies were approved by the University of Auckland Animal Ethics Committee.
Animals weighed 18-25 g at the time of tumour inoculation. Tumours were grown subcutaneously on the right flank of mice by inoculating cells grown in tissue culture (1×10^7 cells in 100 uL serum free α-MEM). Tumour sizes were monitored three times weekly using electronic callipers and treatments were initiated once tumour diameter reached ≥7 mm.
Tumour bearing mice were randomised into the appropriate treatment groups and tumour size and body weight recorded. Test compounds were formulated on the day of the experiment and kept in foil-wrapped tubes out of direct fluorescent light. If recruitment of animals occurred over multiple days, the drug stocks were aliquoted into tubes and frozen once at −80° C. until required. Mice were treated with a single (or q4dx3 or q4dx4 or q4dx6) dose of a compound of the invention by intraperitoneal injection and thereafter tumour size and body weight was monitored every second day. Tumour volume was calculated as […] (l×w×w)/6, where l is the major axis and w is the perpendicular minor axis. Animals were culled when they had reached the appropriate survival endpoint or when body weight loss exceeded 20% of the pre-treatment value.

[5] = read-out: PLC/PRF/5-WT Anti-proliferative IC50
[6] = with 3 μM SN34037, read-out: PLC/PRF/5-WT +AKR1C3 Inhibitor Anti-proliferative IC50
[7] = Homo sapiens, HCT-116, read-out: HCT116-AKR1C3 IC50
[8] = read-out: HCT116-AKR1C3 + AKR1C3 Inhibitor IC50, with 3 μM SN34037
[9] = Homo sapiens, HCT-116, read-out: HCT116-WT IC50
[10] = read-out: HCT116-WT + AKR1C3 Inhibitor IC50, with 3 μM SN34037

## CN1CCN(C(=O)c2cc([N+](=O)[O-])ccc2N(CCBr)CCBr)CC1 [SN34118, reference compound]
[1]; [5]
  IC50: 115 µM
[1]; [6]
  IC50: 174 µM
[2]
  IC50 Ratio WT:AKR1C3: 98
[2]; [7]
  IC50: 0.389 µM
[2]; [8]
  IC50: 23.9 µM
[3]; [9]
  IC50: 38.2 µM
[3]; [10]
  IC50: 29.3 µM

## CN1CCN(S(=O)(=O)c2cc([N+](=O)[O-])ccc2N(CCOS(C)(=O)=O)CCOS(C)(=O)=O)CC1 [Compound 641, ((2-((4-methylpiperazin-1-yl)sulfonyl)-4-nitrophenyl)azanediyl)bis(ethane-2,1-diyl) dimethanesulfonate]
[1]; [5]
  IC50: 1.42 µM
[1]; [6]
  IC50: 40.5 µM
[4]
  tolerability of schedule: well-tolerated
[2]
  IC50 Ratio WT:AKR1C3: 2955
[2]; [7]
  IC50: 0.002 µM
[2]; [8]
  IC50: 3.11 µM
[3]; [9]
  IC50: 5.91 µM
[3]; [10]
  IC50: 6.4 µM

## O=[N+]([O-])c1ccc(N(CCBr)CCBr)c(S(=O)(=O)N2CCN(CC(O)CO)CC2)c1 (stereo not drawn) [Compound 566, 3-(4-((2-(bis(2-bromoethyl)amino)-5-nitrophenyl)sulfonyl)piperazin-1-yl)propane-1,2-diol]
[2]
  IC50 Ratio WT:AKR1C3: 3340
[2]; [7]
  IC50: 0.001 µM
[2]; [8]
  IC50: 1.72 µM
[3]; [9]
  IC50: 3.34 µM
[3]; [10]
  IC50: 3.93 µM

## CS(=O)(=O)OCCN(CCBr)c1c(C(=O)NCCO)cc([N+](=O)[O-])cc1[N+](=O)[O-] [PR-104A, 2-((2-bromoethyl)(2-((2-hydroxyethyl)-carbamoyl)-4,6-dinitrophenyl)amino)ethyl methanesulfonate, reference compound]
[1]; [5]
  IC50: 108 µM
[1]; [6]
  IC50: 181 µM
[2]
  IC50 Ratio WT:AKR1C3: 50
[2]; [7]
  IC50: 1.12 µM
[2]; [8]
  IC50: 41.8 µM
[3]; [9]
  IC50: 55.8 µM
[3]; [10]
  IC50: 70.7 µM

## CS(=O)(=O)OCCN(CCBr)c1ccc([N+](=O)[O-])cc1S(=O)(=O)N1CCN(CC(O)CO)CC1 (stereo not drawn) [Compound 605, 2-((2-bromoethyl)(2-((4-(2,3-dihydroxypropyl)piperazin-1-yl)sulfonyl)-4-nitrophenyl)amino)ethyl methanesulfonate]
[2]
  IC50 Ratio WT:AKR1C3: 687
[2]; [7]
  IC50: 0.009 µM
[2]; [8]
  IC50: 3.54 µM
[3]; [9]
  IC50: 6.18 µM
[3]; [10]
  IC50: 6.9 µM

## CN1CCN(C(=O)c2cc([N+](=O)[O-])ccc2N(CCBr)CCOS(C)(=O)=O)CC1 [SN34454, reference compound]
[1]; [5]
  IC50: 111 µM
[1]; [6]
  IC50: 131 µM
[4]
  tolerability of schedule: well-tolerated
[4]; SN34454 237, 602 178, 641 178 μmol/kg, FIG. 2
  anti-tumour efficacy (mean tumour volume): anti-tumour efficacy

## CN1CCN(S(=O)(=O)c2cc([N+](=O)[O-])ccc2N(CCBr)CCOS(C)(=O)=O)CC1 [Compound 602, 2-((2-bromoethyl)(2-((4-methylpiperazin-1-yl)sulfonyl)-4-nitrophenyl)amino)ethyl methanesulfonate]
[1]
  more cytotoxic in PLC/PRF/5 cells than SN34454: 94 fold
[1]; [5]
  IC50: 1.19 µM
[1]; [6]
  IC50: 23.7 µM
[4]
  tolerability of schedule: well-tolerated
[2]
  IC50 Ratio WT:AKR1C3: 4260
[2]; [7]
  IC50: 0.001 µM
[2]; [8]
  IC50: 1.78 µM
[3]; [9]
  IC50: 4.26 µM
[3]; [10]
  IC50: 4.33 µM
